Kd and X-ray crystal structure data for two compounds are collected here from PMC7343540 (Journal of the American Chemical Society, 2020).

Test [1] concerns the target T1, AsqJ (Aspergillus nidulans, UniProt Q5AR53). Description: EPR titration of Mn2+-loaded AsqJ. It is filed as binding.
For test [2], the target named is T1, AsqJ. Description: X-ray crystal structure. It is filed as binding. Conditions: Fe, 2OG; formed in crystal from 1-H with 1 mM ascorbate and O2, 1.63 Å.

T1 sequence (Q5AR53 109-416): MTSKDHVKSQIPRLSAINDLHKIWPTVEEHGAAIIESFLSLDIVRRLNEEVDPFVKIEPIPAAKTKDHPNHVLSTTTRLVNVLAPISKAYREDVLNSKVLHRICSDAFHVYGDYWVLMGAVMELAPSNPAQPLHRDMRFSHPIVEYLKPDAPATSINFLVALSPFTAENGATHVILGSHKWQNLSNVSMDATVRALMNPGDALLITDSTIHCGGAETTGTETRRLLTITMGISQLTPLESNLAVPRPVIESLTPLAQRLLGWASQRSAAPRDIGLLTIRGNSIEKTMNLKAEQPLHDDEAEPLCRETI

A word on the Kd: it is a measure of binding affinity in units of concentration. Low readings indicate higher affinity, high ones lower affinity. On AsqJ [1], `CN1C(=O)c2ccccc2NC(=O)/C1=C/c1ccc(C(F)(F)F)cc1` [2-CF3] registered a Kd of around 5 µM.

As for `CN1C(=O)c2ccccc2NC(=O)[C@@]12O[C@H]2c1ccccc1` [3-H, cyclopenin], on AsqJ [2], the X-ray crystal structure result is “revealed the presence of 3-H, and 2OG in the active site”.
